Laboratory results published in US4749571A, “Physiologically-active novel substance "Aldostatin" and production method thereof” (Toyo Jozo Co., Ltd., priority 1986, dated 1988).
pIC50: −log10 of the molar value.

Tests used:
mice = test: Acute toxicity; assay type: in vivo; conditions: i.v., dose of 200 mg/kg
aldose reductase = target: T1, aldose reductase (Bos taurus, UniProt P16116); test: Aldose reductase inhibitory activity; assay type: biochemical, bovine (lenses); conditions: partially purified bovine lens enzyme
T1 construct: partially purified aldose reductase derived from bovine lenses; from tissue; host or cells: bovine lenses
Experimental: The preparation of an aldose reductase and the quantitative analysis of its enzymatic activity were effected in accordance with the method described by Hayman et al. in "Journal of Biological Chemistry" 240, 877 (1965). It was a partially purified aldose reductase derived from bovine lenses that was employed as an enzyme. Placed in a quartz cell in a spectrophotometer photometer was 2.4 ml of a 5×10^- 5M NADPH solution dissolved in 2/15M phosphate buffer (pH 6.0), 0.4 ml of 15 milli-units/ml solution of the enzyme and 0.1 ml of an aqueous aldostatin of one of various concentration. The contents were pre-incubated at 37° C. for 4 minutes. […] The reduction of the absorbance at 340 nm was traced at 37° C. for 4 minutes. At that time, the value (B) of tan θ was determined. Similarly, the reduction of the absorbance at 340 nm without addition of the inhibitor "aldostatin" was tracked. At that time, the value (A) of tan θ was determined. Percent inhibition (%) was calculated as follows. [formula]
The amount of inhibitor for 50% inhibition was expressed as IC50.

Solubility = assay type: physicochemical

O=CN[C@@H](Cc1ccc(O)c(-c2cc(C[C@H](NC=O)C(=O)O)ccc2O)c1)C(=O)O [aldostatin]
toxic effect (acute toxicity) (mice): no toxic effect | pIC50 (aldose reductase; substrate glucose (5.0 × 10^-2 M)): 5.58 | pIC50 (aldose reductase; substrate glyceraldehyde (5.0 × 10^-4 M), NADPH, pH 6.0, 37° C.): 5.92 | solubility (Solubility; acetone): slightly soluble | solubility (Solubility; benzene): insoluble | solubility (Solubility; chloroform): slightly soluble | solubility (Solubility; dimethylsulfoxide): soluble | solubility (Solubility; ethyl acetate): slightly soluble | solubility (Solubility; hexane): insoluble | solubility (Solubility; methanol): soluble | solubility (Solubility; petroleum ether): insoluble | solubility (Solubility; water): soluble
